Experimental data as given in patent publication US11013702B2, “Midodrine hydrochloride oral solution and uses thereof” (Vertice Pharma, LLC, priority 2017, dated 2021).

Assay: Solubility of midodrine hydrochloride in various solvents and pH values
Type: physicochemical

Measured: solubility

COc1ccc(OC)c(C(O)CNC(=O)CN)c1.Cl (stereo not drawn) [Midodrine Hydrochloride, 2-amino-N-[2-(2,5-dimethoxyphenyl) -2-hydroxyethyl]acetamide hydrochloride]
> 10000 µg/mL: 0.01N hydrochloric acid, simulated gastric fluid | 0.1N hydrochloric acid, simulated gastric fluid | Simulated Gastric Fluid (SGF) pH 1.25 | aqueous buffer, Potassium Phosphate Buffer, pH 6.0 | potassium phosphate buffer, pH 2.5, aqueous buffer | potassium phosphate buffer, pH 3.5, aqueous buffer | potassium phosphate buffer, pH 4.5, aqueous buffer | potassium phosphate buffer, pH 5.5, aqueous buffer | potassium phosphate buffer, pH 6.8, aqueous buffer | potassium phosphate buffer, pH 7.2, aqueous buffer | potassium phosphate buffer, pH 7.5, aqueous buffer | water
